Results reported in paper PMC2229574 (The Journal of General Physiology, 2003).
Where two headings read alike, the source gives them in different places.

Experiments:
mouse AChR αD97V = mouse AChR αD97V (Mus musculus, UniProt P02716+P04756+P20782, D117V)
mouse AChR αD97N = mouse AChR αD97N (Mus musculus, UniProt P02716+P04756+P20782, D117N)
mouse AChR αD97P = mouse AChR αD97P (Mus musculus, UniProt P02716+P04756+P20782, D117P); conditions: for α2 (diliganded channel closing rate constant): 0.4 mM choline; for β2 (diliganded channel opening rate constant): 20 mM choline; for L2 (diliganded gating equilibrium constant, β2/α2) / L2-ratio (mut/wt): choline
mouse AChR αD97Y = mouse AChR αD97Y (Mus musculus, UniProt P02716+P04756+P20782, D117Y)
Sequence of mouse AChR αD97Y (P04756 21-457 D117Y): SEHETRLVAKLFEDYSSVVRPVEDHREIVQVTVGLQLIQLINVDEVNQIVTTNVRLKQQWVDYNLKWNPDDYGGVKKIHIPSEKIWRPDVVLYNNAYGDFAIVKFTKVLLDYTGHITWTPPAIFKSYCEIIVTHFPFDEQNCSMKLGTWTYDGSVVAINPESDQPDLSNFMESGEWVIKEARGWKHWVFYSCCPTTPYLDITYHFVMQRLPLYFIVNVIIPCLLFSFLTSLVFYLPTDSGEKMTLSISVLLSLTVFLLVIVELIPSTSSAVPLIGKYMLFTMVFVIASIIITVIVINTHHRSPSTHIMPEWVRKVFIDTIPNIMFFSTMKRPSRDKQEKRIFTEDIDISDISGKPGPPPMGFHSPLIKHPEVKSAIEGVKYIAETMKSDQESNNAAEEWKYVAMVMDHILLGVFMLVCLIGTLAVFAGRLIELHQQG
Sequence of mouse AChR αD97Y (P09690 24-501 partner): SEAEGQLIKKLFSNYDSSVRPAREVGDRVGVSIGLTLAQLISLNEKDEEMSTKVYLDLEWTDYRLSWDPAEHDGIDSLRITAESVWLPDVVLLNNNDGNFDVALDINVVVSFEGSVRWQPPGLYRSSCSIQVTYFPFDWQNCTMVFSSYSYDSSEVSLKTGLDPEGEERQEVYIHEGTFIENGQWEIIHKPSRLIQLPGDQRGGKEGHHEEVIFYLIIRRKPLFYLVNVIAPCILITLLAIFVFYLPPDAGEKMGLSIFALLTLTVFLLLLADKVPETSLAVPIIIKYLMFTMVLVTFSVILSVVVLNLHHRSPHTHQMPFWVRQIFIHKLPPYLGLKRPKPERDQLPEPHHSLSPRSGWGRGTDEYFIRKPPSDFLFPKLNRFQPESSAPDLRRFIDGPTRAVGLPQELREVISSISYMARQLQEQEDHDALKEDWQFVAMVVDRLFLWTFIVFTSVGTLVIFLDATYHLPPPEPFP
Sequence of mouse AChR αD97Y (P02716 25-520): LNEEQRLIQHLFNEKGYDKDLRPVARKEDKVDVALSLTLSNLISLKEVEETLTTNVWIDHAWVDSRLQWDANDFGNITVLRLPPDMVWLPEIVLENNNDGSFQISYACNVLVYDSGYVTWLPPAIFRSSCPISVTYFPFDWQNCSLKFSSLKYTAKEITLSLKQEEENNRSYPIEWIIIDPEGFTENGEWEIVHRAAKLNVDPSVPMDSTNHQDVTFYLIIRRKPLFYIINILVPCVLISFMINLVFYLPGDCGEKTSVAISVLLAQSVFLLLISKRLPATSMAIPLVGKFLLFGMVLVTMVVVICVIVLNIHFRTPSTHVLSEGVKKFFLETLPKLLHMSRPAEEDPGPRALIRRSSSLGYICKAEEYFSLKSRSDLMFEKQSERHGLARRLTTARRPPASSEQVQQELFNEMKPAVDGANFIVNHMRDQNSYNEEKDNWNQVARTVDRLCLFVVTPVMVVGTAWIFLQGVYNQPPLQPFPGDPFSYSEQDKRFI
Sequence of mouse AChR αD97Y (P20782 21-493, stated change not applied): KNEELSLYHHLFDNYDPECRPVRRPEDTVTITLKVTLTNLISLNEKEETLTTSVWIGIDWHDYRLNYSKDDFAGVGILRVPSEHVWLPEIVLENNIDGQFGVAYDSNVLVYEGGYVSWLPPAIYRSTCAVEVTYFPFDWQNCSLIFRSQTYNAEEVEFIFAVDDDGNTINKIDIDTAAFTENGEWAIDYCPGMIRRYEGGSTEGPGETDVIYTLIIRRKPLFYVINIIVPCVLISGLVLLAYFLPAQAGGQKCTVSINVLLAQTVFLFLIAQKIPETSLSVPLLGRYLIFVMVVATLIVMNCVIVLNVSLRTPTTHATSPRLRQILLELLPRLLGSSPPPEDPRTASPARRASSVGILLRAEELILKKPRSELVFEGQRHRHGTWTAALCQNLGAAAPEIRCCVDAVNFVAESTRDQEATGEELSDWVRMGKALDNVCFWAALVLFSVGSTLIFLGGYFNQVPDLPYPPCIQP

mouse AChR αD97H = mouse AChR αD97H (Mus musculus, UniProt P02716+P04756+P20782, D117H); conditions: for L2: kinetic modeling
mouse AChR αD97A = mouse AChR αD97A (Mus musculus, UniProt P02716+P04756+P20782, D117A)
[1] = biological target: mouse AChR δ-subunit N98V (Mus musculus, UniProt P02716+P04756+P20782, N122V); conditions: 20 mM choline
[2] = biological target: mouse AChR ɛ-subunit D97A (Mus musculus, UniProt P02716+P04756+P20782, D117A); conditions: 20 mM choline
[3] = biological target: mouse AChR ɛ-subunit D97V (Mus musculus, UniProt P02716+P04756+P20782, D117V); conditions: 20 mM choline
[4] = joint fit choline 1, 2 and 5 mM, Scheme I

Sequence of mouse AChR αD97V (P04756 21-457 D117V): as the sequence (P04756 21-457 D117Y) above, with Y97V counted along it
Sequence of mouse AChR αD97V (P09690 24-501 partner): as the sequence (P09690 24-501 partner) above
Sequence of mouse AChR αD97V (P02716 25-520): as the sequence (P02716 25-520) above
Sequence of mouse AChR αD97V (P20782 21-493, stated change not applied): as the sequence (P20782 21-493, stated change not applied) above

## C[N+](C)(C)CCO [choline]
Mouse AChR αD97V; 0.4 mM choline
  α2 (diliganded channel closing rate constant): 1,974 s^−1
Mouse AChR αD97V; 20 mM choline
  β2 (diliganded channel opening rate constant): 161 s⁻¹
Mouse AChR αD97V; choline
  L2 (diliganded gating equilibrium constant, β2/α2): 0.082
  L2-ratio (mut/wt): 1.71
Mouse AChR αD97N; 0.4 mM choline
  α2 (diliganded channel closing rate constant): 2,379 s^−1
Mouse AChR αD97N; 20 mM choline
  β2 (diliganded channel opening rate constant): 268 s⁻¹
Mouse AChR αD97N; choline
  L2 (diliganded gating equilibrium constant, β2/α2): 0.113
  L2-ratio (mut/wt): 2.37
Mouse AChR αD97P; αD97P kinetic mode P1
  α2 (diliganded channel closing rate constant): 2,276 s^−1
  β2 (diliganded channel opening rate constant): 322 s⁻¹
  L2 (diliganded gating equilibrium constant, β2/α2): 0.141
  L2-ratio (mut/wt): 2.97
Mouse AChR αD97P; αD97P kinetic mode P2
  α2 (diliganded channel closing rate constant): 2,276 s^−1
  β2 (diliganded channel opening rate constant): 1,396 s^−1
  L2 (diliganded gating equilibrium constant, β2/α2): 0.613
  L2-ratio (mut/wt): 12.88
Mouse AChR αD97Y; 0.4 mM choline
  α2 (diliganded channel closing rate constant): 1,992 s^−1
Mouse AChR αD97Y; 20 mM choline
  β2 (diliganded channel opening rate constant): 1,396 s^−1
Mouse AChR αD97Y; choline
  L2 (diliganded gating equilibrium constant, β2/α2): 0.701
  L2-ratio (mut/wt): 14.72
Mouse AChR αD97H; 0.4 mM choline
  α2 (diliganded channel closing rate constant): 1,938 s^−1
Mouse AChR αD97H; 20 mM choline
  β2 (diliganded channel opening rate constant): 1,840 s^−1
Mouse AChR αD97H; choline
  L2 (diliganded gating equilibrium constant, β2/α2): 0.949
  L2-ratio (mut/wt): 19.94
Mouse AChR αD97H; choline, fit by Eq. 2
  L2 (equilibrium gating constant) from Popen dose–response analysis: 1.1 ± 0.5
Mouse AChR αD97H; choline, Scheme I
  L2: 1.2 ± 0.1
Mouse AChR αD97H; choline, Scheme I, listed as Choline
  L2: 1.15 ± 0.14
Mouse AChR αD97H; [4]
  α2: 2,759 ± 149 s^−1
  β2: 3,189 ± 168 s^−1
Mouse AChR αD97A; double αD97A mutant, 20 mM choline
  ΔΔG0 for channel gating, 0.59 ln(L2^wt/L2^mut): 3.09 kcal mol^−1
Mouse AChR αD97A; αD97A, 0.4 mM choline
  α2 (diliganded channel closing rate constant): 1,719 s^−1
Mouse AChR αD97A; αD97A, 20 mM choline
  β2 (diliganded channel opening rate constant): 13,793 s^−1
Mouse AChR αD97A; αD97A, choline
  L2 (diliganded gating equilibrium constant, β2/α2): 8.023
  L2-ratio (mut/wt): 168
Mouse AChR αD97A; αD97A, choline, listed as Choline
  L2-ratio (mut/wt): 168.50
[1]
  α2* (apparent channel closing rate constant): 437 s⁻¹
  β2 (channel opening rate constant): 62 s⁻¹
[2]
  α2* (apparent channel closing rate constant): 645 s⁻¹
  β2 (channel opening rate constant): 64 s⁻¹
[3]
  α2* (apparent channel closing rate constant): 933 s⁻¹
  β2 (channel opening rate constant): 103 s⁻¹
